For this assay, the target named is T1, AR (Homo sapiens, UniProt P10275).
T1 construct: endogenous in cells; host or cells: VCaP cells
T1 sequence (P10275 1-920): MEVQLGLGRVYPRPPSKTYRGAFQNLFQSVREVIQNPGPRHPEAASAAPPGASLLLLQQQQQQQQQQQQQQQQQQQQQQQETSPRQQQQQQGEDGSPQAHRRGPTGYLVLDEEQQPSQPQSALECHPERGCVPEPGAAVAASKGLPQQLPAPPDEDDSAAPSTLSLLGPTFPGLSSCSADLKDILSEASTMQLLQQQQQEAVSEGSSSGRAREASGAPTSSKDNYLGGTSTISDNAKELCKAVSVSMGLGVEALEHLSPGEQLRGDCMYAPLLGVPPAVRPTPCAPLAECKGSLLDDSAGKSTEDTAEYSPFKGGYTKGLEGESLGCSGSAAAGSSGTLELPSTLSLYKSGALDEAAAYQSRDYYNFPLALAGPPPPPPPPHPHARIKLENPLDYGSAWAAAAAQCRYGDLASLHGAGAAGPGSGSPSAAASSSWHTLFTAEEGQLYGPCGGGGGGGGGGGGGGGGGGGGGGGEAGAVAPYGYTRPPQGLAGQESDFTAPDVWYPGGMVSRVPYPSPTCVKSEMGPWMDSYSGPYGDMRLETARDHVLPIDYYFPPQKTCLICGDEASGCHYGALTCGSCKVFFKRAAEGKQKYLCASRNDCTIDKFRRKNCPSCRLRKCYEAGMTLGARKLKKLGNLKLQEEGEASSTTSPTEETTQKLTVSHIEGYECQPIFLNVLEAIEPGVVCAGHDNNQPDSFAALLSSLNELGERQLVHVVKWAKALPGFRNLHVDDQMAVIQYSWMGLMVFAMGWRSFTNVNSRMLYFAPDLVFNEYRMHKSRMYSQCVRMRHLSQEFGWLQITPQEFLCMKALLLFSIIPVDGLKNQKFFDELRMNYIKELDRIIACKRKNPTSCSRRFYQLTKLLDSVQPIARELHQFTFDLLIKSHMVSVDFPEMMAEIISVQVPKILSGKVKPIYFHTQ
Kind of assay: VCAP AR Degradation Assay. It is filed as cell-based. The following applies: VCaP cells, 24 h; for DC50: AR ELISA, concentration when AR level = 50% of DMSO control; for Ymin: lowest AR level normalized to DMSO control. Here is the method: VCAP AR Degradation Assay. Test compounds were pre-dispensed into a Corning CellBind 96-well clear bottom plate (Cat #3300) using an acoustic dispenser to make a 10-point concentration series at 1:3 dilution for each compound. The final top concentration of each compound was 5 μM. DMSO at a final concentration of 0.1% was used as a control. VCaP cells cultured in DMEM with 8% fetal bovine serum (FBS) were seeded at 50K cells per well in a 200 μL volume into the compound plate and incubated at 37° C. in a C02 incubator for 24 h. The medium was carefully removed from the cells and the plate was placed on ice. One hundred μL of ice-cold 1× cell lysis buffer from Cell Signaling Technologies (Cat #9803) was added to each well of the cells and the plate was incubated at 4° C. on a shaker for 1 h. Fifteen μL of cell lysate was used for AR ELISA detection using a PathScan Total Sandwich AR ELISA kit (Cell Signaling Technology, Cat #12580). AR levels in compound-treated wells were normalized to that of DMSO control and expressed as percent of control (PoC) (y). A Four Parameter Logistic Model (Sigmoidal Dose-Response Model) was used to determine the compound's DC50, and EC50, using the following equation: […]
The lowest measured AR level normalized to DMSO control in response to compound treatment, termed Y value, was used to characterize the compound-mediated AR degradation efficiency.

The structures appear in SMILES notation. Where a name gives a salt, the structure may show the parent alone. Some results are limits rather than exact numbers.

For `C[C@@H]1CN(CCCC[C@H]2CC[C@H](N3C(=S)N(c4ccc(C#N)c(C(F)(F)F)c4)C(=O)C3(C)C)CC2)C[C@H](C)N1CC(=O)Nc1ccc(N2CCC(=O)NC2=O)cc1` [Cmpd 26, 2-((2R,6S)-4-(4-((trans)-4-(3-(4-Cyano-3-(trifluoromethyl)phenyl)-5,5-dimethyl-4-oxo-2-thioxoimidazolidin-1-yl)cyclohexyl)butyl)-2,6-dimethylpiperazin-1-yl)-N-(4-(2,4-dioxotetrahydropyrimidin-1(2H)-yl)phenyl)acetamide], the DC50 is 5 to 15 nM. Besides, the Ymin (given as numbers) was 25 % of DMSO control.
In turn, `C[C@@H]1C[C@@H](CCO[C@H]2CC[C@H](N3C(=S)N(c4ccc(C#N)c(C(F)(F)F)c4)C(=O)C3(C)C)CC2)C[C@H](C)N1CC(=O)Nc1ccc(C2CCC(=O)NC2=O)cc1` (stereo partly drawn) [Cmpd 21, 2-((2R,4s,6S)-4-(2-((trans-4-(3-(4-Cyano-3-(trifluoromethyl)phenyl)-5,5-dimethyl-4-oxo-2-thioxoimidazolidin-1-yl)cyclohexyl)oxy)ethyl)-2,6-dimethylpiperidin-1-yl)-N-(4-(2,6-dioxopiperidin-3-yl)phenyl)acetamide hydrochloride] registered a DC50 of no more than 5 nM. Also, under “class symbols”, the Ymin entry is “* (0<Y≤20%)”.
`CC1(C)C(=O)N(c2cnc(C#N)c(C(F)(F)F)c2)C(=S)N1[C@H]1CC[C@H](OCCN2CCN(CC(=O)Nc3ccc(C4CCC(=O)NC4=O)cc3)[C@@H](C(F)(F)F)C2)CC1` (stereo partly drawn) [Cmpd 28, 2-((R)-4-(2-(((trans)-4-(3-(6-Cyano-5-(trifluoromethyl)pyridin-3-yl)-5,5-dimethyl-4-oxo-2-thioxoimidazolidin-1-yl)cyclohexyl)oxy)ethyl)-2-(trifluoromethyl)piperazin-1-yl)-N-(4-(2,6-dioxopiperidin-3-yl)phenyl)acetamide]: the DC50 is no more than 5 nM. Where the note is “given as numbers”, the Ymin is 20 % of DMSO control.
For `C[C@@H]1C[C@H](OCC[C@H]2CC[C@H](N3C(=S)N(c4cnc(C#N)c(C(F)(F)F)c4)C(=O)C3(C)C)CC2)C[C@H](C)N1CC(=O)Nc1ccc(C2CCC(=O)NC2=O)cc1` (stereo partly drawn) [Cmpd 39, 2-((2R,4r,6S)-4-(2-((trans)-4-(3-(6-Cyano-5-(trifluoromethyl)pyridin-3-yl)-5,5-dimethyl-4-oxo-2-thioxoimidazolidin-1-yl)cyclohexyl)ethoxy)-2,6-dimethylpiperidin-1-yl)-N-(4-(2,6-dioxopiperidin-3-yl)phenyl)acetamide], in that order: no more than 5 nM and 14 % of DMSO control.
For `C[C@@H]1C[C@@H](CCO[C@H]2CC[C@H](N3C(=S)N(c4cnc(C#N)c(C(F)(F)F)c4)C(=O)C3(C)C)CC2)C[C@H](C)N1CC(=O)Nc1ccc(C2CCC(=O)NC2=O)cc1` (stereo partly drawn) [Cmpd 29, 2-((2R,4s,6S)-4-(2-(((trans)-4-(3-(6-Cyano-5-(trifluoromethyl)pyridin-3-yl)-5,5-dimethyl-4-oxo-2-thioxoimidazolidin-1-yl)cyclohexyl)oxy)ethyl)-2,6-dimethylpiperidin-1-yl)-N-(4-(2,6-dioxopiperidin-3-yl)phenyl)acetamide], in that order: no more than 5 nM and 15 % of DMSO control.
In the case of `C[C@@H]1CN(CCC[C@H]2CC[C@H](N3C(=S)N(c4ccc(C#N)c(C(F)(F)F)c4)C(=O)C3(C)C)CC2)C[C@H](C)N1CC(=O)Nc1ccc(C2CCC(=O)NC2=O)cc1` (stereo partly drawn) [Cmpd 3, 2-((2R,6S)-4-(3-(trans-4-(3-(4-Cyano-3-(trifluoromethyl)phenyl)-5,5-dimethyl-4-oxo-2-thioxoimidazolidin-1-yl)cyclohexyl)propyl)-2,6-dimethylpiperazin-1-yl)-N-(4-(2,6-dioxopiperidin-3-yl)phenyl)acetamide hydrochloride], the DC50 lay within 5 to 15 nM. Under “class symbols”, the Ymin result was “** (20%<Y≤30%)”.
In turn, `C[C@@H]1C[C@H](OCC[C@H]2CC[C@H](N3C(=S)N(c4ccc(C#N)c(C(F)(F)F)c4)C(=O)C3(C)C)CC2)C[C@H](C)N1CC(=O)Nc1ccc(C2CCC(=O)NC2=O)cc1` (stereo partly drawn) [Cmpd 40, 2-((2R,4r,6S)-4-(2-((trans)-4-(3-(4-Cyano-3-(trifluoromethyl)phenyl)-5,5-dimethyl-4-oxo-2-thioxoimidazolidin-1-yl)cyclohexyl)ethoxy)-2,6-dimethylpiperidin-1-yl)-N-(4-(2,6-dioxopiperidin-3-yl)phenyl)acetamide] gave a DC50 of 5 to 15 nM. Also, for the setting “given as numbers”, the Ymin was 21 % of DMSO control.
As for `CC1(C)C(=O)N(c2ccc(C#N)c(C(F)(F)F)c2)C(=S)N1[C@H]1CC[C@H](OCCCN2CCN(CC(=O)Nc3ccc(C4CCC(=O)NC4=O)cc3)[C@@H](C(F)(F)F)C2)CC1` (stereo partly drawn) [Cmpd 35, 2-((R)-4-(3-(((trans)-4-(3-(4-Cyano-3-(trifluoromethyl)phenyl)-5,5-dimethyl-4-oxo-2-thioxoimidazolidin-1-yl)cyclohexyl)oxy)propyl)-2-(trifluoromethyl)piperazin-1-yl)-N-(4-(2,6-dioxopiperidin-3-yl)phenyl)acetamide], the DC50 was no more than 5 nM. Besides, where the note is “given as numbers”, the Ymin is recorded as 21 % of DMSO control.
On the same counts, the results for `CC1(C)C(=O)N(c2cnc(C#N)c(C(F)(F)F)c2)C(=S)N1[C@H]1CC[C@H](OCCCN2CCN(CC(=O)Nc3cccc(C4CCC(=O)NC4=O)c3)[C@@H](C(F)(F)F)C2)CC1` (stereo partly drawn) [Cmpd 32, 2-((R)-4-(3-(((trans)-4-(3-(6-Cyano-5-(trifluoromethyl)pyridin-3-yl)-5,5-dimethyl-4-oxo-2-thioxoimidazolidin-1-yl)cyclohexyl)oxy)propyl)-2-(trifluoromethyl)piperazin-1-yl)-N-(3-(2,6-dioxopiperidin-3-yl)phenyl)acetamide] are no more than 5 nM and 20 % of DMSO control.
On the same counts, the results for `CC1(C)C(=O)N(c2ccc(C#N)c(C(F)(F)F)c2)C(=S)N1[C@H]1CC[C@H](OCCCN2CCN(CC(=O)Nc3cccc(C4CCC(=O)NC4=O)c3)[C@@H](C(F)(F)F)C2)CC1` (stereo partly drawn) [Cmpd 31, 2-((R)-4-(3-(((trans)-4-(3-(4-Cyano-3-(trifluoromethyl)phenyl)-5,5-dimethyl-4-oxo-2-thioxoimidazolidin-1-yl)cyclohexyl)oxy)propyl)-2-(trifluoromethyl)piperazin-1-yl)-N-(3-(2,6-dioxopiperidin-3-yl)phenyl)acetamide] are no more than 5 nM and 21 % of DMSO control.
In turn, `C[C@@H]1CN(CCC[C@H]2CC[C@H](N3C(=S)N(c4cnc(C#N)c(Cl)c4)C(=O)C3(C)C)CC2)C[C@H](C)N1CC(=O)Nc1ccc(C2CCC(=O)NC2=O)cc1` (stereo partly drawn) [Cmpd 16, 2-((2R,6S)-4-(3-(trans-4-(3-(5-Chloro-6-cyanopyridin-3-yl)-5,5-dimethyl-4-oxo-2-thioxoimidazolidin-1-yl)cyclohexyl)propyl)-2,6-dimethylpiperazin-1-yl)-N-(4-(2,6-dioxopiperidin-3-yl)phenyl)acetamide hydrochloride] came in with a DC50 of 5 to 15 nM. Where the note is “class symbols”, the Ymin entry is recorded as “*** (30%<Y<80%)”.
As to `C[C@@H]1C[C@H](OCCO[C@H]2CC[C@H](N3C(=S)N(c4cnc(C#N)c(C(F)(F)F)c4)C(=O)C3(C)C)CC2)C[C@H](C)N1CC(=O)Nc1ccc(C2CCC(=O)NC2=O)cc1` (stereo partly drawn) [Cmpd 41, 2-((2R,4r,6S)-4-(2-(((trans)-4-(3-(6-Cyano-5-(trifluoromethyl)pyridin-3-yl)-5,5-dimethyl-4-oxo-2-thioxoimidazolidin-1-yl)cyclohexyl)oxy)ethoxy)-2,6-dimethylpiperidin-1-yl)-N-(4-(2,6-dioxopiperidin-3-yl)phenyl)acetamide], the DC50 is no more than 5 nM. Also, for the setting “given as numbers”, the Ymin is on record as 17 % of DMSO control.

The record behind these values is patent US20240368118A1, “CEREBLON BINDING COMPOUNDS, COMPOSITIONS THEREOF, AND METHODS OF TREATMENT THEREWITH” (CELGENE CORPORATION, priority 2021, published 2024).
